# Data reported in BindingDB's records for doi:10.1016/j.bmcl.2004.05.021 (University of Alberta, 2004).
# Molecular target: Genome polyprotein 3C proteinase (Hepatitis A virus)
# Test: Reversible inhibitory activity against Protease
row,SMILES,IC50
1,"CC(=O)N[C@@H](CC(C)C)C(=O)N[C@@H](C)C(=O)N[C@@H](C)C(=O)N[C@@H](C[C@@H]1CCNC1=O)C(=O)Cn1[nH]c(=O)c2c(F)c(F)c(F)c(F)c2c1=O [(S)-2-Acetylamino-4-methyl-pentanoic acid ((S)-1-{1-[(S)-2-oxo-1-((1S,4S)-2-oxo-pyrrolidin-3-ylmethyl)-3-(5,6,7,8-tetrafluoro-1,4-dioxo-3,4-dihydro-1H-phthalazin-2-yl)-propylcarbamoyl]-ethylcarbamoyl}-ethyl)-amide]",2 µM
2,"CC(=O)N[C@@H](CC(C)C)C(=O)N[C@@H](C)C(=O)N[C@@H](C)C(=O)N[C@@H](C[C@@H]1CCNC1=O)C(=O)Cn1[nH]c(=O)c2c([N+](=O)[O-])cccc2c1=O [(S)-2-Acetylamino-4-methyl-pentanoic acid ((S)-1-{1-[(S)-3-(5-nitro-1,4-dioxo-3,4-dihydro-1H-phthalazin-2-yl)-2-oxo-1-((1S,4S)-2-oxo-pyrrolidin-3-ylmethyl)-propylcarbamoyl]-ethylcarbamoyl}-ethyl)-amide]",1.6 µM
3,"CC(=O)N[C@@H](CC(C)C)C(=O)N[C@@H](C)C(=O)N[C@@H](C)C(=O)N[C@@H](CCC(=O)N(C)C)C(=O)Cn1[nH]c(=O)c2ccccc2c1=O [(S)-4-{(S)-2-[(S)-2-((S)-2-Acetylamino-4-methyl-pentanoylamino)-propionylamino]-propionylamino}-6-(1,4-dioxo-3,4-dihydro-1H-phthalazin-2-yl)-5-oxo-hexanoic acid dimethylamide]",13 µM
